System: TNFα mRNA in SKOV-3 cells
Test: TNFα mRNA induction in SKOV-3 cells (FIG. 2), fold increase relative to untreated cells
Experimental: Each of the tumor cell lines indicated was treated for 18 hrs with 1 uM of the Compound II. mRNA was harvested using Qiagen's TurboCapture mRNA isolation kit. cDNA was synthesized using BioRad iScript cDNA synthesis kit. Primers specific for the cDNA encoding TNFalpha were then used to PCR amplify TNF cDNA from each sample using Applied. Biosystems TaqMan Universal PCR Master Mix. Data is normalized to B-Actin mRNA and expressed as relative levels of TNF mRNA.
The graph depicting TNF induction by compound II includes nine bars correlating to the fold increase of TNF relative to untreated cells.

CC[C@@H](c1cncc(C(=O)c2ccc(F)cc2)c1)N(CC)C(=O)[C@@H](NC(=O)[C@H](C)NC)C1CCCCC1 [Compound III]
induction of TNFα mRNA (in words): induce TNFα mRNA in SKOV-3 cells in a dose dependent manner | fold increase of TNF relative to untreated cells (100 nM compound + PI (MG132)): 15-20 fold increase | fold increase of TNF relative to untreated cells (100 nM compound + ZVAD): 85-95 fold increase | fold increase of TNF relative to untreated cells (100 nM compound alone): 85-95 fold increase | fold increase of TNF relative to untreated cells (1000 nM compound + PI (MG132)): 30-40 fold increase | fold increase of TNF relative to untreated cells (1000 nM compound + ZVAD): 75-80 fold increase | fold increase of TNF relative to untreated cells (1000 nM compound + sTNFR (soluble TNFα receptor)): 0-1 fold increase | fold increase of TNF relative to untreated cells (1000 nM compound alone): 105-115 fold increase | fold increase of TNF relative to untreated cells (100 nm compound + sTNFR (soluble TNFα receptor)): 0-3 fold increase

Source: patent US20100316573A1, “Organic Compounds” (priority 2006, published 2010)
